Among the data in ChEMBL document CHEMBL1143281, “New analogues of agmatine with higher affinity to imidazoline receptors” (Bioorg Med Chem Lett, 2009) are Ki and IC50 values, retold here.

One may read the Ki as the equilibrium dissociation constant of an inhibitor or competing ligand from its target. Read a low Ki as tighter binding. One may read the IC50 as the concentration that inhibits the measured activity by half.

Assay [1] can be described thus: Displacement of [3H]2BFI from imidazoline I2 receptor in Sprague-Dawley rat brain by liquid scintillation counting. For orientation: In a radioligand displacement assay an active substance lowers the binding of a labelled ligand.
Assay [2] concerns the target T1, Nischarin (Rattus norvegicus, UniProt Q4G017). As to the kind of experiment: Displacement of [3H]clonidine from imidazoline I1 receptor in Sprague-Dawley rat kidney by liquid scintillation counting.
Assay [3] concerns the target T2, Adrenergic receptor alpha-2 (Rattus norvegicus, UniProt P22086+P19328+P22909).
T2 sequence (P22086 whole entry): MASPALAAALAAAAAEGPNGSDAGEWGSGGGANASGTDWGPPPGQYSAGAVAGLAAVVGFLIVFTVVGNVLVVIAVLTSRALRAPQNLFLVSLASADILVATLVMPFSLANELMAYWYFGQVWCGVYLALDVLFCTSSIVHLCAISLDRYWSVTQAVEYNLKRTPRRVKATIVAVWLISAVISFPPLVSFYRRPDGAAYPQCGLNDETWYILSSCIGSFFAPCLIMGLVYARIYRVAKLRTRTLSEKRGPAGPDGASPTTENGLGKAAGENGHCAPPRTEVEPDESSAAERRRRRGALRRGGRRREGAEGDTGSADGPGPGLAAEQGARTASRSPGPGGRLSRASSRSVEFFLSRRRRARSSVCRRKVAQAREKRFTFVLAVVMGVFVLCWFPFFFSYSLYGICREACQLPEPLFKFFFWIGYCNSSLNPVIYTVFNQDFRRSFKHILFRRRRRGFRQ
T2 sequence (P19328 whole entry): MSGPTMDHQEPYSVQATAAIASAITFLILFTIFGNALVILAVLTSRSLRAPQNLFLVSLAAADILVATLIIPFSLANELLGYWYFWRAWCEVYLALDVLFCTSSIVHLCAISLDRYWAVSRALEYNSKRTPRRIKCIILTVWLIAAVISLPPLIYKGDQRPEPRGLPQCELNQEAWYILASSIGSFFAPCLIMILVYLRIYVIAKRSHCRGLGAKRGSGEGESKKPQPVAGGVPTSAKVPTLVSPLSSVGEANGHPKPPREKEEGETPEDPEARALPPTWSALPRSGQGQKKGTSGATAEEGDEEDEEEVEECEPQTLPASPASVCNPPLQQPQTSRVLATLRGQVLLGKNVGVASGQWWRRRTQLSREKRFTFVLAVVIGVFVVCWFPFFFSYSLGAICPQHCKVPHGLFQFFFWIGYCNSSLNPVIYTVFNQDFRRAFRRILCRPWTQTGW
T2 sequence (P22909 whole entry): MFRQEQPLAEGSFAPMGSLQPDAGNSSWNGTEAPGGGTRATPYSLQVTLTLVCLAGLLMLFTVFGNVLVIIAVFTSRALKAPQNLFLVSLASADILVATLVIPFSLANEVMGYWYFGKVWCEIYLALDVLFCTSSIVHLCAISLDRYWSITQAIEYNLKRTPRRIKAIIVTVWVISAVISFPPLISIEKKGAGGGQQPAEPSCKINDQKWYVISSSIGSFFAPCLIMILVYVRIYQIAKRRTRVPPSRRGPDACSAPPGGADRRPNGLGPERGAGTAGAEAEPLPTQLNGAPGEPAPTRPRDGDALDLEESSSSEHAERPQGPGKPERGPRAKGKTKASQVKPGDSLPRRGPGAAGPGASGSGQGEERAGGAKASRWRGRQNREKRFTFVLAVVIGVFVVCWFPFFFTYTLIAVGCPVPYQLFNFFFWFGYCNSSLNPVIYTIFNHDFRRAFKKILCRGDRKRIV
Briefly: Displacement of [3H]RX821002 from alpha2 adrenoceptor in Sprague-Dawley rat kidney by liquid scintillation counting. In kind it is tissue-based.

Assay [4] concerns the target T2, Adrenergic receptor alpha-2. As to the kind of experiment: Displacement of [3H]RX821002 from alpha2 adrenoceptor in Wistar rat kidney by liquid scintillation counting. The format is tissue-based.
A short description of assay [5]: Displacement of [3H]2BFI from imidazoline I2 receptor in Wistar rat brain by liquid scintillation counting.
For assay [6], the target named is T1, Nischarin. Briefly: Displacement of [3H]clonidine from imidazoline I1 receptor in Wistar rat kidney by liquid scintillation counting.

T1 sequence (Q4G017 whole entry): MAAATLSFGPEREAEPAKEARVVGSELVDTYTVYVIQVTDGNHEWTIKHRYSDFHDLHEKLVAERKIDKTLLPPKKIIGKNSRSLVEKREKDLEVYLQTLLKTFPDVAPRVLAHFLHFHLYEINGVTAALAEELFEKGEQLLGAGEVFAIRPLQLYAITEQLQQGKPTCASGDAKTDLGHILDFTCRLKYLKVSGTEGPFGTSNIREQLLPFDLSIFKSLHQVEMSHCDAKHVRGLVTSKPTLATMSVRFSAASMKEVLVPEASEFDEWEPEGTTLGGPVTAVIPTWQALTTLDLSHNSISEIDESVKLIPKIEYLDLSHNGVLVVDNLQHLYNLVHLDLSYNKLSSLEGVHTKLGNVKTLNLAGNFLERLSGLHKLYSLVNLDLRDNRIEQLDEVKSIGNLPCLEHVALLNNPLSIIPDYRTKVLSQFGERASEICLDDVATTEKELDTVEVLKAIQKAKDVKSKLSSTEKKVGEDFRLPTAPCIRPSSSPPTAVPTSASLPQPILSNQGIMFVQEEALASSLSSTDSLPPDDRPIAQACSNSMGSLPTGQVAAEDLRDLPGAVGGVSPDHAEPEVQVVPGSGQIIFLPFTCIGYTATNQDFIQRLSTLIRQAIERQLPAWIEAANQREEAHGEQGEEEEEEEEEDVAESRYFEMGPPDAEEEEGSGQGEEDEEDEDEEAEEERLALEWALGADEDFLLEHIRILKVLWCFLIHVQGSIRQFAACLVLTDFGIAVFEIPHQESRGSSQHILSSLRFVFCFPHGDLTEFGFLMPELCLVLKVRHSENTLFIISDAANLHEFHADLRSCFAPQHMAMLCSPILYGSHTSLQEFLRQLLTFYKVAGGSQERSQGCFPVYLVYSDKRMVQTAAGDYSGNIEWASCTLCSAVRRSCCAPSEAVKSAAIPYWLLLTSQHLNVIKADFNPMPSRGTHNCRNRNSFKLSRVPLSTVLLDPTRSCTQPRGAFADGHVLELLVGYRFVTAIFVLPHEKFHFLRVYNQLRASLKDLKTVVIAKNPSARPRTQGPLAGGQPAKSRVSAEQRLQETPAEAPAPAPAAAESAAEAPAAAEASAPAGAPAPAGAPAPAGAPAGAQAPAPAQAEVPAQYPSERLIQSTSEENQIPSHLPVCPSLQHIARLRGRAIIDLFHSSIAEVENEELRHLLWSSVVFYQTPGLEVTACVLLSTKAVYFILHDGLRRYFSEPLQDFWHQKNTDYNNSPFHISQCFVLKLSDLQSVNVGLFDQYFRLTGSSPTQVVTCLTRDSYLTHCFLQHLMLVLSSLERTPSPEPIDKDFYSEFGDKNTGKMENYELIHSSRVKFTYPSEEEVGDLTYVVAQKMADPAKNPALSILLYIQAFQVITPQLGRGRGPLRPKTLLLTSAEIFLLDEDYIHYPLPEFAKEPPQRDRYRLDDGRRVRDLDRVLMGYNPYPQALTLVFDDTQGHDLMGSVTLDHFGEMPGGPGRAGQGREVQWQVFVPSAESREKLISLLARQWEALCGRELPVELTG

In the case of `CN(C)CC[C@H]1CN=CN1.Cl.Cl`, the Ki in assay [1] and in assay [3] was above 100 µM each time. Moreover, the half-maximal inhibitory concentration (IC50) at Nischarin [2] worked out at 64 µM.
Regarding `Br.NCC[C@@H]1CN=C(N)N1`, the Ki was above 100 µM in assay [1] and 18.82 µM in assay [3]. The 50% inhibitory concentration (IC50) on Nischarin [2] is above 100 µM.
As for `Br.CC1=NC[C@H](CCN)N1`, the values for the inhibitory constant (Ki) in assay [1] and in assay [3] were 1.84 µM and 76.44 µM, respectively. At Nischarin [2], the concentration for half-maximal inhibition (IC50) was found to be 115 µM.
For the molecule `Br.CC(=O)NCC[C@@H]1CN=C(N)N1`, the inhibition constant Ki in assay [1] and in assay [3] was above 100 µM in each case. This molecule also yielded a 50% inhibitory concentration (IC50) at Nischarin [2] of 383 µM.
Regarding `CC(=O)NCC[C@H]1CN=CN1.CC(=O)O`, the Ki in assay [1] and in assay [3] was above 100 µM each time. This molecule also registered a half-maximal inhibitory concentration (IC50) on Nischarin [2] of 213 µM.
Take `Br.NCC[C@H]1CN=C(N)N1`: the figures for the Ki in assay [1] and in assay [3] were 55 µM and 11.77 µM, respectively. This molecule also had a 50% inhibitory concentration (IC50) at Nischarin [2] of 0.477 µM.
On the same counts, the results for `Br.NCC[C@@H]1CN=CN1` are above 100 µM, 62.07 µM and 16.5 µM.
Take `Br.CN(C)CC[C@H]1CN=C(N)N1`: the Ki is above 100 µM in assay [1] and above 52.86 µM in assay [3]. For the same molecule, the IC50 on Nischarin [2] came out at 44.8 µM.
The corresponding values for `Br.NCC[C@H]1CN=CN1` are 65.8 µM, above 100 µM and above 100 µM.
On the same counts, the results for `Br.CC(=O)NCC[C@H]1CN=C(N)N1` are above 100 µM, above 100 µM and 235 µM.
Turning to `NCCCCN=C(N)N` [AGMATINE], the Ki in assay [4] is 31.7 µM; in assay [5], 417 µM. At Nischarin [6], the IC50 amounted to 36.5 µM.
Molecule `Clc1cccc(Cl)c1NC1=NCCN1` [CLONIDINE] returned a Ki in assay [1] of 0.364 µM. Also, the half-inhibitory concentration (IC50) at Nischarin [2] was determined as 0.366 µM.
